Data as given in PubChem BioAssay (NCI).
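GI50 marks 50% less growth. TGI: total growth inhibition.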

Legend:
Experiment in all cases: NCI tumour cell line growth inhibition, 384-well format
LOX IMVI melanoma = system: LOX IMVI melanoma
OVCAR-3 ovarian = system: OVCAR-3 ovarian
NCI/ADR-RES ovarian = system: NCI/ADR-RES ovarian
MOLT-4 leukemia = system: MOLT-4 leukemia
RPMI-8226 leukemia = system: RPMI-8226 leukemia
SF-295 CNS = system: SF-295 CNS
SNB-75 CNS = system: SNB-75 CNS
A498 renal = system: A498 renal
OVCAR-8 ovarian = system: OVCAR-8 ovarian
SNB-19 CNS = system: SNB-19 CNS
MDA-MB-231 breast = system: MDA-MB-231 breast
HCC-2998 colon = system: HCC-2998 colon
ACHN renal = system: ACHN renal
SK-MEL-28 melanoma = system: SK-MEL-28 melanoma
SW-620 colon = system: SW-620 colon
SN12C renal = system: SN12C renal
NCI-H23 lung = system: NCI-H23 lung
CCRF-CEM leukemia = system: CCRF-CEM leukemia
MCF7 breast = system: MCF7 breast
OVCAR-4 ovarian = system: OVCAR-4 ovarian
NCI-H460 NSCLC = system: NCI-H460 NSCLC
SK-OV-3 ovarian = system: SK-OV-3 ovarian
U251 glioblastoma = system: U251 glioblastoma
UACC-257 melanoma = system: UACC-257 melanoma
MALME-3M melanoma = system: MALME-3M melanoma
CAKI-1 renal = system: CAKI-1 renal
HCT-15 colon = system: HCT-15 colon
HS 578T breast = system: HS 578T breast
HT29 colon = system: HT29 colon
RXF 393 renal = system: RXF 393 renal
786-0 renal = system: 786-0 renal
SF-268 CNS = system: SF-268 CNS
M14 melanoma = system: M14 melanoma
A549 NSCLC = system: A549 NSCLC
HCT-116 colon = system: HCT-116 colon
HOP-62 NSCLC = system: HOP-62 NSCLC
COLO 205 colon = system: COLO 205 colon
HOP-92 NSCLC = system: HOP-92 NSCLC
MDA-MB-435 melanoma = system: MDA-MB-435 melanoma
UO-31 renal = system: UO-31 renal
KM12 colon = system: KM12 colon
NCI-H522 lung = system: NCI-H522 lung
DU-145 prostate = system: DU-145 prostate
BT-549 breast = system: BT-549 breast
MDA-MB-468 breast = system: MDA-MB-468 breast
SF-539 CNS = system: SF-539 CNS
SR leukemia = system: SR leukemia
NCI-H322M lung = system: NCI-H322M lung
EKVX NSCLC = system: EKVX NSCLC
K-562 leukemia = system: K-562 leukemia
SK-MEL-5 melanoma = system: SK-MEL-5 melanoma
IGROV1 ovarian = system: IGROV1 ovarian
PC-3 prostate = system: PC-3 prostate
UACC-62 melanoma = system: UACC-62 melanoma
T-47D breast = system: T-47D breast
HL-60(TB) leukemia = system: HL-60(TB) leukemia
NCI-H226 lung = system: NCI-H226 lung
TK-10 renal = system: TK-10 renal

## CNCCN(C)Cc1cn[nH]c1-c1ccc(OC2CC(OCCC3CCOCC3)C2)cc1 (stereo unspecified)
LOX IMVI melanoma
  GI50: 32.6 µM
  TGI: > 100 µM
OVCAR-3 ovarian
  GI50: 24 µM
  TGI: > 100 µM
NCI/ADR-RES ovarian
  GI50: > 100 µM
  TGI: > 100 µM
MOLT-4 leukemia
  GI50: 36.8 µM
  TGI: > 100 µM
RPMI-8226 leukemia
  GI50: 24.5 µM
  TGI: > 100 µM
SF-295 CNS
  GI50: 64.5 µM
  TGI: > 100 µM
SNB-75 CNS
  GI50: > 100 µM
  TGI: > 100 µM
A498 renal
  GI50: 48.9 µM
  TGI: > 100 µM
OVCAR-8 ovarian
  GI50: > 100 µM
  TGI: > 100 µM
SNB-19 CNS
  GI50: > 100 µM
  TGI: > 100 µM
MDA-MB-231 breast
  GI50: 78.8 µM
  TGI: > 100 µM
HCC-2998 colon
  GI50: 50.7 µM
  TGI: > 100 µM
ACHN renal
  GI50: 70.9 µM
  TGI: > 100 µM
SK-MEL-28 melanoma
  GI50: 43 µM
  TGI: > 100 µM
SW-620 colon
  GI50: > 100 µM
  TGI: > 100 µM
SN12C renal
  GI50: 89.2 µM
  TGI: > 100 µM
NCI-H23 lung
  GI50: 40 µM
  TGI: > 100 µM
CCRF-CEM leukemia
  GI50: 53.8 µM
  TGI: > 100 µM
MCF7 breast
  GI50: 51.5 µM
  TGI: > 100 µM
OVCAR-4 ovarian
  GI50: > 100 µM
  TGI: > 100 µM
NCI-H460 NSCLC
  GI50: 43.8 µM
  TGI: > 100 µM
SK-OV-3 ovarian
  GI50: > 100 µM
  TGI: > 100 µM
U251 glioblastoma
  GI50: 51.8 µM
  TGI: > 100 µM
UACC-257 melanoma
  GI50: 18.9 µM
  TGI: 43.3 µM
MALME-3M melanoma
  GI50: 13.6 µM
  TGI: 56.2 µM
CAKI-1 renal
  GI50: 41.2 µM
  TGI: > 100 µM
HCT-15 colon
  GI50: > 100 µM
  TGI: > 100 µM
HS 578T breast
  GI50: > 100 µM
  TGI: > 100 µM
HT29 colon
  GI50: 24.6 µM
  TGI: 71.5 µM
RXF 393 renal
  GI50: 69.8 µM
  TGI: > 100 µM
786-0 renal
  GI50: 41.4 µM
  TGI: > 100 µM
SF-268 CNS
  GI50: 83.6 µM
  TGI: > 100 µM
M14 melanoma
  GI50: > 100 µM
  TGI: > 100 µM
A549 NSCLC
  GI50: 79.6 µM
  TGI: > 100 µM
HCT-116 colon
  GI50: 36.6 µM
  TGI: > 100 µM
HOP-62 NSCLC
  GI50: 58.3 µM
  TGI: > 100 µM
COLO 205 colon
  GI50: 96.4 µM
  TGI: > 100 µM
HOP-92 NSCLC
  GI50: 42.5 µM
  TGI: > 100 µM
MDA-MB-435 melanoma
  GI50: > 100 µM
  TGI: > 100 µM
UO-31 renal
  GI50: 80.2 µM
  TGI: > 100 µM
KM12 colon
  GI50: > 100 µM
  TGI: > 100 µM
NCI-H522 lung
  GI50: > 100 µM
  TGI: > 100 µM
DU-145 prostate
  GI50: > 100 µM
  TGI: > 100 µM
BT-549 breast
  GI50: 61.4 µM
  TGI: > 100 µM
MDA-MB-468 breast
  GI50: 45.5 µM
  TGI: > 100 µM
SF-539 CNS
  GI50: 94.4 µM
  TGI: > 100 µM
SR leukemia
  GI50: 7.14 µM
  TGI: 15 µM
NCI-H322M lung
  GI50: > 100 µM
  TGI: > 100 µM
EKVX NSCLC
  GI50: 60.6 µM
  TGI: > 100 µM
K-562 leukemia
  GI50: 9.91 µM
  TGI: 25 µM
SK-MEL-5 melanoma
  GI50: 16.1 µM
  TGI: > 100 µM
IGROV1 ovarian
  GI50: 37.1 µM
  TGI: > 100 µM
PC-3 prostate
  GI50: 75.4 µM
  TGI: > 100 µM
UACC-62 melanoma
  GI50: 22 µM
  TGI: 66.6 µM
T-47D breast
  GI50: 71.2 µM
  TGI: > 100 µM
HL-60(TB) leukemia
  GI50: 3.26 µM
  TGI: 12.4 µM
NCI-H226 lung
  GI50: > 100 µM
  TGI: > 100 µM
TK-10 renal
  GI50: 84.5 µM
  TGI: > 100 µM
